Among the data in the supplement of paper PMC10307832 are relative viability values, retold here.

Common to all, as to assay: relative viability (nuclei count vs DMSO), 5 days (fraction); higher = more cells survive
Compound in assay [1]: COC1=C(C=C(C=C1)C2=CC3=NC=CN3C(=N2)NC4=C(C=CC=N4)C(=O)N)OC [BAY61-3606] + CS(=O)(=O)N1CCN(Cc2cc3nc(-c4cccc5[nH]ncc45)nc(N4CCOCC4)c3s2)CC1 [Pictilisib] (partner 1 µM)
The method, boiled down: (§1)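 One day after seeding in 1536-well plates, lung cancer cell lines were dosed by pin tool. Dosing was either single-drug or a fixed anchor-drug dose plus five library-drug doses (not always all listed) in √10 steps. After 5 days, nuclei were stained in one fix-and-stain step and counted on 4× images, and relative viability is the nuclei count of treated wells over that of vehicle wells, given as the median of duplicate plates.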

Compound in assay [2]: COc1cccc2c1C(=O)c1c(O)c3c(c(O)c1C2=O)C[C@@](O)(C(=O)CO)C[C@@H]3O[C@H]1C[C@H](N)[C@H](O)[C@H](C)O1 [Doxorubicin] + Cc1nc(Nc2ncc(C(=O)Nc3c(C)cccc3Cl)s2)cc(N2CCN(CCO)CC2)n1 [Dasatinib] (partner 0.075 µM)
The method, boiled down:
as §1

Compound in assay [3]: COC1=C(C=C(C=C1)C2=CC3=NC=CN3C(=N2)NC4=C(C=CC=N4)C(=O)N)OC [BAY61-3606] + CC(C)C[C@H](NC(=O)[C@H](Cc1ccccc1)NC(=O)c1cnccn1)B(O)O [Bortezomib] (partner 0.002 µM)
The method, boiled down:
as §1

Compound in assay [4]: COC1=C(C=C(C=C1)C2=CC3=NC=CN3C(=N2)NC4=C(C=CC=N4)C(=O)N)OC [BAY61-3606] + O=C(c1cc(Cc2n[nH]c(=O)c3ccccc23)ccc1F)N1CCN(C(=O)C2CC2)CC1 [Olaparib] (partner 8 µM)
The method, boiled down: as §1

As to ChaGo-K-1, the relative viability was found to be 0.897 in assay [1] (first compound 0.02 µM); 0.591 in assay [1] (first compound 0.06325 µM); 0.708 in assay [1] (first compound 0.2 µM); 0.506 in assay [1] (first compound 0.6325 µM); 0.696 in assay [1] (first compound 2 µM); 0.633 in assay [2] (first compound 0.001 µM). Moreover, the relative viability was found to be 0.62 in assay [2] (first compound 0.003162 µM); 0.56 in assay [2] (first compound 0.01 µM); 0.479 in assay [2] (first compound 0.03162 µM); 0.543 in assay [2] (first compound 0.1 µM); 1.22 in assay [3] (first compound 0.02 µM); 0.933 in assay [3] (first compound 0.06325 µM). The relative viability in assay [3] (first compound 0.2 µM) is 1.03; in assay [3] (first compound 0.6325 µM), 0.917; in assay [3] (first compound 2 µM), 1.1; in assay [4] (first compound 0.02 µM) it was 0.442; in assay [4] (first compound 0.06325 µM) it was 0.452; in assay [4] (first compound 0.2 µM), 0.368. In addition, the relative viability in assay [4] (first compound 0.6325 µM) came out at 0.392; in assay [4] (first compound 2 µM), 0.357.
On to NCI-H520, for which the relative viability in assay [1] (first compound 0.02 µM) is 0.316; in assay [1] (first compound 0.06325 µM), 0.32; in assay [1] (first compound 0.2 µM), 0.329; in assay [1] (first compound 0.6325 µM) it was 0.261; in assay [1] (first compound 2 µM) it was 0.317; in assay [2] (first compound 0.001 µM), 0.234. In addition, the relative viability was 0.218 in assay [2] (first compound 0.003162 µM); 0.202 in assay [2] (first compound 0.01 µM); 0.151 in assay [2] (first compound 0.03162 µM); 0.183 in assay [2] (first compound 0.1 µM); 1.1 in assay [3] (first compound 0.02 µM); 0.602 in assay [3] (first compound 0.06325 µM). Further, the relative viability turned out to be 0.843 in assay [3] (first compound 0.2 µM); 0.84 in assay [3] (first compound 0.6325 µM); 0.433 in assay [3] (first compound 2 µM); 0.359 in assay [4] (first compound 0.02 µM); 0.325 in assay [4] (first compound 0.06325 µM); 0.383 in assay [4] (first compound 0.2 µM). In addition, the relative viability in assay [4] (first compound 0.6325 µM) was determined as 0.391; in assay [4] (first compound 2 µM) it was 0.274.
NCI-H661: the relative viability in assay [1] (first compound 0.02 µM) turned out to be 0.422; in assay [1] (first compound 0.06325 µM), 0.415; in assay [1] (first compound 0.2 µM) it was 0.376; in assay [1] (first compound 0.6325 µM), 0.383; in assay [1] (first compound 2 µM), 0.408; in assay [2] (first compound 0.001 µM), 0.829. The relative viability stood at 0.846 in assay [2] (first compound 0.003162 µM); 0.786 in assay [2] (first compound 0.01 µM); 0.412 in assay [2] (first compound 0.03162 µM); 0.316 in assay [2] (first compound 0.1 µM); 0.896 in assay [3] (first compound 0.02 µM); 0.713 in assay [3] (first compound 0.06325 µM). Besides, the relative viability in assay [3] (first compound 0.2 µM) came to 0.767; in assay [3] (first compound 0.6325 µM), 0.724; in assay [3] (first compound 2 µM), 0.556; in assay [4] (first compound 0.02 µM), 0.737; in assay [4] (first compound 0.06325 µM), 0.75; in assay [4] (first compound 0.2 µM), 0.679. Further, the relative viability in assay [4] (first compound 0.6325 µM) amounted to 0.762; in assay [4] (first compound 2 µM), 0.691.
In the case of ABC-1, the relative viability stood at 0.822 in assay [1] (first compound 0.02 µM); 0.766 in assay [1] (first compound 0.06325 µM); 0.787 in assay [1] (first compound 0.2 µM); 0.709 in assay [1] (first compound 0.6325 µM); 0.538 in assay [1] (first compound 2 µM); 0.612 in assay [2] (first compound 0.001 µM). In addition, the relative viability in assay [2] (first compound 0.003162 µM) came to 0.56; in assay [2] (first compound 0.01 µM) it was 0.511; in assay [2] (first compound 0.03162 µM) it was 0.33; in assay [2] (first compound 0.1 µM) it was 0.224; in assay [3] (first compound 0.02 µM), 0.291; in assay [3] (first compound 0.06325 µM), 0.308. Also, the relative viability in assay [3] (first compound 0.2 µM) is 0.35; in assay [3] (first compound 0.6325 µM), 0.427; in assay [3] (first compound 2 µM), 0.284; in assay [4] (first compound 0.02 µM), 0.908; in assay [4] (first compound 0.06325 µM), 0.686; in assay [4] (first compound 0.2 µM) it was 0.76. Besides, the relative viability in assay [4] (first compound 0.6325 µM) turned out to be 0.494; in assay [4] (first compound 2 µM), 0.711.
NCI-H2009: the relative viability in assay [1] (first compound 0.02 µM) is 0.897; in assay [1] (first compound 0.06325 µM), 0.849; in assay [1] (first compound 0.2 µM), 0.851; in assay [1] (first compound 0.6325 µM), 0.751; in assay [1] (first compound 2 µM), 0.52; in assay [2] (first compound 0.001 µM), 0.308. Further, the relative viability in assay [2] (first compound 0.003162 µM) is 0.319; in assay [2] (first compound 0.01 µM) it was 0.296; in assay [2] (first compound 0.03162 µM) it was 0.272; in assay [2] (first compound 0.1 µM), 0.235; in assay [3] (first compound 0.02 µM), 1.07; in assay [3] (first compound 0.06325 µM), 1.02. Besides, the relative viability amounted to 0.961 in assay [3] (first compound 0.2 µM); 1.02 in assay [3] (first compound 0.6325 µM); 0.83 in assay [3] (first compound 2 µM); 0.714 in assay [4] (first compound 0.02 µM); 0.639 in assay [4] (first compound 0.06325 µM); 0.864 in assay [4] (first compound 0.2 µM). The values for the relative viability in assay [4] (first compound 0.6325 µM) and in assay [4] (first compound 2 µM) were 0.713 and 0.592, respectively.
Take NCI-H1993: the relative viability was 0.871 in assay [1] (first compound 0.02 µM); 0.764 in assay [1] (first compound 0.06325 µM); 0.755 in assay [1] (first compound 0.2 µM); 0.868 in assay [1] (first compound 0.6325 µM); 0.804 in assay [1] (first compound 2 µM); 0.714 in assay [2] (first compound 0.001 µM). The relative viability in assay [2] (first compound 0.003162 µM) is 0.6; in assay [2] (first compound 0.01 µM), 0.512; in assay [2] (first compound 0.03162 µM) it was 0.479; in assay [2] (first compound 0.1 µM), 0.427; in assay [3] (first compound 0.02 µM), 1.08; in assay [3] (first compound 0.06325 µM), 1.02. Also, the relative viability came to 0.976 in assay [3] (first compound 0.2 µM); 1.12 in assay [3] (first compound 0.6325 µM); 0.848 in assay [3] (first compound 2 µM); 1.11 in assay [4] (first compound 0.02 µM); 1.04 in assay [4] (first compound 0.06325 µM); 0.984 in assay [4] (first compound 0.2 µM). Moreover, the relative viability worked out at 1.13 in assay [4] (first compound 0.6325 µM) and 0.82 in assay [4] (first compound 2 µM).
Take HCC-78: the relative viability stood at 0.297 in assay [1] (first compound 0.02 µM); 0.226 in assay [1] (first compound 0.06325 µM); 0.251 in assay [1] (first compound 0.2 µM); 0.158 in assay [1] (first compound 0.6325 µM); 0.167 in assay [1] (first compound 2 µM); 0.412 in assay [2] (first compound 0.001 µM). Besides, the relative viability was 0.465 in assay [2] (first compound 0.003162 µM); 0.366 in assay [2] (first compound 0.01 µM); 0.349 in assay [2] (first compound 0.03162 µM); 0.363 in assay [2] (first compound 0.1 µM); 0.452 in assay [3] (first compound 0.02 µM); 0.535 in assay [3] (first compound 0.06325 µM). For the same cell line, the relative viability in assay [3] (first compound 0.2 µM) was 0.526; in assay [3] (first compound 0.6325 µM), 0.479; in assay [3] (first compound 2 µM) it was 0.427; in assay [4] (first compound 0.02 µM), 0.744; in assay [4] (first compound 0.06325 µM) it was 0.891; in assay [4] (first compound 0.2 µM), 0.845. For the same cell line, the relative viability in assay [4] (first compound 0.6325 µM) came out at 0.966; in assay [4] (first compound 2 µM), 0.838.
